What all share (type): cell-based
Assay [1] concerns Trypanosoma brucei Lister 427 VSG221 with APOL1 G0 recombinant protein. The assay is described as follows: APOL1 G0 trypanosome cell rescue assay (Example B5). The conditions noted are these: Trypanosoma brucei, 20 h, read-out: APOL1 G0 Trypanosome Rescue EC50, Trypanosoma brucei Lister 427 VSG221 with APOL1 G0 recombinant protein, 20 hours, CellTiter-Glo; geometric mean of at least 2 assay runs; † = single assay run. The method, boiled down: (§1)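 Viability read by CellTiter-Glo luminescence after 20 h co-incubation (37° C, 5% CO2) of 250 trypanosomes/well in modified HMI-9 with test compound (duplicate 11-point, 2-fold dilutions, 0.4% DMSO) and APOL1 protein, […]. Protein: mature residues 28-398, E. coli inclusion-body refolded, tag cleaved, in DDM.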
A general note: In ATP-based viability assays light output follows the ATP content of the culture.

The test system of assay [2] is Trypanosoma brucei Lister 427 VSG221 with APOL1 G1 recombinant protein. The assay is described as follows: APOL1 G1 trypanosome cell rescue assay (Example B5). Conditions: Trypanosoma brucei, 20 h, read-out: APOL1 G1 Trypanosome Rescue EC50, Trypanosoma brucei Lister 427 VSG221 with APOL1 G1 recombinant protein, 20 hours, CellTiter-Glo; geometric mean of at least 2 assay runs; † = single assay run. The method, boiled down:
as §1

For assay [3], the system named is HEK293 cells overexpressing APOL1 G2. The assay is described as follows: APOL1 G2 HEK293 cell rescue assay (reversal of cell death caused by overexpression of APOL1). The conditions noted are these: Homo sapiens, HEK293, HEK293 overexpressing APOL1 G2; geometric mean of at least 2 assay runs; † = single assay run. The method, boiled down: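 Each compound tested in duplicate wells on one plate per run, with values usually the geometric mean across at least two runs on different days, occasionally from one run only. Read-out: concentration giving half-maximal rescue of APOL1 G2 overexpression-induced death of HEK293 cells.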

Among the data in patent publication US12344610B2, “APOL1 inhibitors and methods of use” (Maze Therapeutics, Inc., priority 2022, dated 2025) are EC50 values, retold here.

Each structure is given as a SMILES string. Bounds are passed on as bounds.

The EC50 is the concentration needed to bring the measured effect to its halfway point. For the molecule `CS(=O)(=O)c1ccc(OCCN2CCC3(CC2)C(=O)Nc2c(C#N)cc(Cl)cc23)cc1` [Compound 9, 5-chloro-1′-[2-(4-methanesulfonylphenoxy)ethyl]-2-oxo-1,2-dihydrospiro[indole-3,4′-piperidine]-7-carbonitrile], the EC50 in assay [1] was > 4000 nM; in assay [2], > 4000 nM; in assay [3], 1760 nM.
Consider `CS(=O)(=O)CCCn1ncc2cc(OCCN3CCC4(CC3)C(=O)Nc3ccc(Cl)cc34)ccc21` [Compound 14, 5-chloro-1′-(2-{[1-(3-methanesulfonylpropyl)-1H-indazol-5-yl]oxy}ethyl)-1,2-dihydrospiro[indole-3,4′-piperidin]-2-one], for which the EC50 was determined as 378 nM in assay [1], 488 nM in assay [2] and 130 nM in assay [3].
For `O=C1Nc2ccc(Cl)cc2C12CCN(CCOc1ccc3c(cnn3C3COC3)c1)CC2` [Compound 15, 5-chloro-1′-(2-{[1-(oxetan-3-yl)-1H-indazol-5-yl]oxy}ethyl)-1,2-dihydrospiro[indole-3,4′-piperidin]-2-one] the same measures were 336 nM, 342 nM and 124 nM.
For `CC(C)n1ncc2cc(OCCN3CCC4(CC3)C(=O)Nc3ccc(Cl)cc34)ccc21` [Compound 16, 5-chloro-1′-(2-{[1-(propan-2-yl)-1H-indazol-5-yl]oxy}ethyl)-1,2-dihydrospiro[indole-3,4′-piperidin]-2-one] the same measures were 267 nM, 312 nM and 112 nM.
The corresponding values for `O=C1Nc2ccc(Cl)cc2C12CCN(CCOc1ccc(S(=O)(=O)[C@H]3C[C@@H](O)C3)cc1)CC2` [Compound 17, 5-chloro-1′-[2-(4-{[(cis)-3-hydroxycyclobutyl]sulfonyl}phenoxy)ethyl]-1,2-dihydrospiro[indole-3,4′-piperidin]-2-one] are 108 nM, 148 nM and 60 nM.
For `O=C1CCc2cc(OCCN3CCC4(CC3)C(=O)Nc3ccc(Cl)cc34)ccc2N1C1COC1` [Compound 99, 5-chloro-1′-(2-{[1-(oxetan-3-yl)-2-oxo-1,2,3,4-tetrahydroquinolin-6-yl]oxy}ethyl)-1,2-dihydrospiro[indole-3,4′-piperidin]-2-one], the EC50 in assay [1] amounted to 216 nM; in assay [2], 346 nM; in assay [3], 86.5 nM.
For `CS(=O)(=O)c1ccc(OCCN2CCC3(CC2)C(=O)Nc2ccc(C#N)cc23)cc1C(F)F` [Compound 100, 1′-{2-[3-(difluoromethyl)-4-methanesulfonylphenoxy]ethyl}-2-oxo-1,2-dihydrospiro[indole-3,4′-piperidine]-5-carbonitrile], the EC50 turned out to be 63.5 nM in assay [1], 113 nM in assay [2] and 46.5 nM in assay [3].
The corresponding values for `CS(=O)(=O)C1(c2ccc(OCCN3CCC4(CC3)C(=O)Nc3ccc(C#N)cc34)cc2)CC1` [Compound 101, 1′-{2-[4-(1-methanesulfonylcyclopropyl)phenoxy]ethyl}-2-oxo-1,2-dihydrospiro[indole-3,4′-piperidine]-5-carbonitrile] are 195 nM, 200 nM and 49.6 nM.
On to `CS(=O)(=O)C1(c2ccc(OCCN3CCC4(CC3)C(=O)Nc3ccc(Cl)cc34)cc2)CC1` [Compound 102, 5-chloro-1′-{2-[4-(1-methanesulfonylcyclopropyl)phenoxy]ethyl}-1,2-dihydrospiro[indole-3,4′-piperidin]-2-one], for which the figures for the half-maximal effective concentration (EC50) in assay [1], in assay [2] and in assay [3] were 47.3 nM, 50.5 nM and 31.4 nM, respectively.
With `CN1c2ccc(OCCN3CCC4(CC3)C(=O)Nc3ccc(Cl)cc34)cc2CCS1(=O)=O` [Compound 103, 6-(2-{5-chloro-2-oxo-1,2-dihydrospiro[indole-3,4′-piperidin]-1′-yl}ethoxy)-1-methyl-3,4-dihydro-1H-2λ^6,1-benzothiazine-2,2-dione], the EC50 amounted to 113 nM in assay [1], 170 nM in assay [2] and 49.4 nM in assay [3].
For `CN1c2ccc(OCCN3CCC4(CC3)C(=O)Nc3ccc(C#N)cc34)cc2CCS1(=O)=O` [Compound 104, 1′-{2-[(1-methyl-2,2-dioxo-3,4-dihydro-1H-2λ^6,1-benzothiazin-6-yl)oxy]ethyl}-2-oxo-1,2-dihydrospiro[indole-3,4′-piperidine]-5-carbonitrile] the same measures were 583 nM, 726 nM and 139 nM.
The corresponding values for `N#Cc1ccc2c(c1)C1(CCN(CCOc3ccc4c(c3)CCC(=O)N4CC(F)F)CC1)C(=O)N2` [Compound 105, 1′-(2-{[1-(2,2-difluoroethyl)-2-oxo-1,2,3,4-tetrahydroquinolin-6-yl]oxy}ethyl)-2-oxo-1,2-dihydrospiro[indole-3,4′-piperidine]-5-carbonitrile] are 217 nM, 274 nM and 40.7 nM.
`O=C1CCc2cc(OCCN3CCC4(CC3)C(=O)Nc3ccc(Cl)cc34)ccc2N1CC(F)F` [Compound 106, 5-chloro-1′-(2-{[1-(2,2-difluoroethyl)-2-oxo-1,2,3,4-tetrahydroquinolin-6-yl]oxy}ethyl)-1,2-dihydrospiro[indole-3,4′-piperidin]-2-one]: the EC50 in assay [1] is 69 nM; in assay [2], 91.8 nM; in assay [3] it was 33.5 nM.
On to `CS(=O)(=O)c1ccc(OCCN2CCC3(CC2)C(=O)Nc2ccc(C#N)cc23)cc1C(F)(F)F` [Compound 107, 1′-{2-[4-methanesulfonyl-3-(trifluoromethyl)phenoxy]ethyl}-2-oxo-1,2-dihydrospiro[indole-3,4′-piperidine]-5-carbonitrile], for which the EC50 in assay [1] is 57.2 nM; in assay [2], 93.5 nM; in assay [3], 30.8 nM.
Regarding `CS(=O)(=O)c1ccc(OCCN2CCC3(CC2)C(=O)Nc2ccc(Cl)cc23)cc1C(F)(F)F` [Compound 108, 5-chloro-1′-{2-[4-methanesulfonyl-3-(trifluoromethyl)phenoxy]ethyl}-1,2-dihydrospiro[indole-3,4′-piperidin]-2-one], the values for the EC50 in assay [1], in assay [2] and in assay [3] were 23.3 nM, 30.7 nM and 16.9 nM, respectively.
Take `CS(=O)(=O)C1(c2ccc(OCCN3CCC4(CC3)C(=O)Nc3ccc(C#N)cc34)cc2)COC1` [Compound 109, 1′-{2-[4-(3-methanesulfonyloxetan-3-yl)phenoxy]ethyl}-2-oxo-1,2-dihydrospiro[indole-3,4′-piperidine]-5-carbonitrile]: the values for the EC50 in assay [1], in assay [2] and in assay [3] were 320 nM, 385 nM and 96.9 nM, respectively.
`Cc1cc(OCCN2CCC3(CC2)C(=O)Nc2ccc(Cl)cc23)ccc1S(C)(=O)=O` [Compound 110, 5-chloro-1′-[2-(4-methanesulfonyl-3-methylphenoxy)ethyl]-1,2-dihydrospiro[indole-3,4′-piperidin]-2-one]: the EC50 is 71.4 nM in assay [1], 87.7 nM in assay [2] and 41.3 nM in assay [3].
For `Cc1cc(OCCN2CCC3(CC2)C(=O)Nc2ccc(C#N)cc23)ccc1S(C)(=O)=O` [Compound 111, 1′-[2-(4-methanesulfonyl-3-methylphenoxy)ethyl]-2-oxo-1,2-dihydrospiro[indole-3,4′-piperidine]-5-carbonitrile] the same measures were 282 nM, 362 nM and 142 nM.
On to `O=C1Nc2ccc(Cl)cc2C12CCN(CCOc1ccc(S(=O)(=O)C(F)F)cc1)CC2` [Compound 112, 5-chloro-1′-[2-(4-difluoromethanesulfonylphenoxy)ethyl]-1,2-dihydrospiro[indole-3,4′-piperidin]-2-one], for which the EC50 in assay [1] is 58.2 nM; in assay [2], 69.6 nM; in assay [3] it was 47.2 nM.
On to `N#Cc1ccc2c(c1)C1(CCN(CCOc3ccc(S(=O)(=O)C(F)F)cc3)CC1)C(=O)N2` [Compound 113, 1′-[2-(4-difluoromethanesulfonylphenoxy)ethyl]-2-oxo-1,2-dihydrospiro[indole-3,4′-piperidine]-5-carbonitrile], for which the EC50 in assay [1] was 124 nM; in assay [2], 154 nM; in assay [3], 83.6 nM.
The corresponding values for `O=C1CCc2cc(OCCN3CCC4(CC3)C(=O)Nc3ccc(Cl)cc34)ccc2N1[C@H]1C[C@@H](O)C1` [Compound 114, 5-chloro-1′-[2-({2-oxo-1-[(cis)-3-hydroxycyclobutyl]-1,2,3,4-tetrahydroquinolin-6-yl}oxy)ethyl]-1,2-dihydrospiro[indole-3,4′-piperidin]-2-one] are 108 nM, 104 nM and 46.5 nM.
For `CN(c1c(F)cc(OCCN2CCC3(CC2)C(=O)Nc2ccc(Cl)cc23)cc1F)S(C)(=O)=O` [Compound 127, N-[4-(2-{5-chloro-2-oxo-1,2-dihydrospiro[indole-3,4′-piperidin]-1′-yl}ethoxy)-2,6-difluorophenyl]-N-methylmethanesulfonamide] the same measures were 64.9 nM, 83.9 nM and 20.8 nM.
